In patent US20230242915A1, “SMALL INTERFERING DEOXYRIBONUCLEIC ACID (SIDNA) AGAINST METALLO-BETA LACTAMASE GENE” (priority 2021, published 2023):
{FAM} = 6-FAM fluorescein dye; {TAMRA} = TAMRA dye

Assays:
[1] = test system: blaIMP-1 gene; assay: blaIMP-1 mRNA level by real time RT-PCR in Pseudomonas aeruginosa transformed with siDNA; format: cell-based; conditions: for Fold change of blaIMP-1 mRNA: 2-ΔΔCt, untreated = about 1
Protocol: In this example, the synthesized siDNA in “Example 1” (comprising exemplary sense and antisense strands set forth in SEQ ID NO: 1 and 2, respectively) was cloned into Pseudomonas aeruginosa bacteria harboring an exemplary blaIMP-1 gene (imipenem/meropenem resistance gene). To this end, first, competent Pseudomonas aeruginosa was prepared and stored at −70° C. to be used in further experiments. Competent cells may refer to microbial cells capable of taking up foreign nucleic acid molecules from their surroundings through a process known as transformation. In order to transfer/clone the prepared siDNA into the competent Pseudomonas aeruginosa bacteria, 100 μL of an exemplary siDNA (either being coated with chitosan polymer or being bare—i.e., being uncoated) with a concentration of about 1% w/v was added to 60 μL of the competent Pseudomonas aeruginosa culture in Lysogeny Broth (LB) medium, gently mixed, and kept at 0° C. for 45 min. Then, the mixture of an exemplary siDNA (either being bare or coated with chitosan polymer) with the culture of competent Pseudomonas aeruginosa was incubated at 37° C., for 20 sec, and immediately placed on ice. Then, 800 μL of Super Optimal broth (SOC) medium was added to the mixture of an exemplary siDNA (either being bare or coated with chitosan polymer) with the culture of competent Pseudomonas aeruginosa and incubated at 37° C., in a shaker incubator, for 24-30 h.
In this example, the effect of an exemplary siDNA—which was cloned into Pseudomonas aeruginosa bacteria in “Example 2”—on the expression of an exemplary blaIMP-1 gene was evaluated. In other words, the level of blaIMP-1 mRNA (messenger RNA) was measured in the transformed Pseudomonas aeruginosa bacteria with an exemplary siDNA in “Example 2”. For this purpose, the total RNA of an exemplary transformed Pseudomonas aeruginosa and an exemplary untreated Pseudomonas aeruginosa (as negative control) was extracted using a commercial RNA extraction kit, followed by conducting a real time RT-PCR (reverse transcriptase polymerase chain reaction) to determine the level of blaIMP-1 mRNA. In this example, 2-ΔΔCt method was used to determine differences in normalized expression of an exemplary blaIMP-1 gene (at transcription level) induced by an exemplary siDNA. FIG. 2 illustrates RNA expression profile 200 in an exemplary transformed Pseudomonas aeruginosa with an exemplary siDNA (measured by real time RT-PCR), consistent with one or more exemplary embodiments of the present disclosure. As shown in RNA expression profile 200, Group A refers to an exemplary transformed Pseudomonas aeruginosa bacteria grown for 4 h in the presence of imipenem, Group B refers to an exemplary transformed Pseudomonas aeruginosa bacteria grown for 18 h in the presence of imipenem, and Group C refers to an exemplary transformed Pseudomonas aeruginosa bacteria grown for 36 h in the presence of imipenem. […] Fold change of an exemplary blaIMP-1 mRNA in untreated Pseudomonas aeruginosa, Group A, Group B, and Group C—shown in RNA expression profile 200—were about 1, 0.088, 0.020, and 0.27, respectively.

[2] = test system: imipenem-resistant Pseudomonas aeruginosa; assay: chronic Pseudomonas aeruginosa lung infection model, lung histology; format: in vivo; conditions: infected mice, imipenem in combination with siDNA (with chitosan), 3 days of treatment; compared with FIG. 5A mouse
Protocol: In this example, the effect of an exemplary siDNA on an exemplary imipenem-resistant Pseudomonas aeruginosa was assessed in 40 mice with chronic Pseudomonas aeruginosa lung infection. For this purpose, a 1% w/v concentration of chitosan polymer was prepared, followed by preparing two different ratios of chitosan 1% w/v to an exemplary siDNA—in phosphate buffered saline (PBS)—including an exemplary 1:1 ration and an exemplary 0.5:1 ratio.
A chronic Pseudomonas aeruginosa lung infection model (using imipenem-resistant Pseudomonas aeruginosa) was established in 40 mice (25-30 g). Exemplary mice were randomly divided into three groups (each group comprising 10 mice) including: i) an exemplary control group that only received imipenem after acquiring chronic infection, ii) an exemplary first group that received imipenem in combination with an exemplary siDNA (ratio 0.5:1 of chitosan 1% w/v to an exemplary siDNA) after acquiring chronic infection, and iii) an exemplary second group that received imipenem in combination with an exemplary siDNA (ratio 1:1 of chitosan 1% w/v to an exemplary siDNA) after acquiring chronic infection. […] The level of tissue damage in an exemplary control group, first group, and second group was observed and analyzed by light microscopy. […]

[3] = test system: Pseudomonas aeruginosa harboring blaIMP-1 gene; assay: imipenem MIC assay (broth dilution) on transformed Pseudomonas aeruginosa; format: cell-based
Protocol: In this example, the synthesized siDNA in “Example 1” (comprising exemplary sense and antisense strands set forth in SEQ ID NO: 1 and 2, respectively) was cloned into Pseudomonas aeruginosa bacteria harboring an exemplary blaIMP-1 gene (imipenem/meropenem resistance gene). To this end, first, competent Pseudomonas aeruginosa was prepared and stored at −70° C. to be used in further experiments. Competent cells may refer to microbial cells capable of taking up foreign nucleic acid molecules from their surroundings through a process known as transformation. In order to transfer/clone the prepared siDNA into the competent Pseudomonas aeruginosa bacteria, 100 μL of an exemplary siDNA (either being coated with chitosan polymer or being bare—i.e., being uncoated) with a concentration of about 1% w/v was added to 60 μL of the competent Pseudomonas aeruginosa culture in Lysogeny Broth (LB) medium, gently mixed, and kept at 0° C. for 45 min. Then, the mixture of an exemplary siDNA (either being bare or coated with chitosan polymer) with the culture of competent Pseudomonas aeruginosa was incubated at 37° C., for 20 sec, and immediately placed on ice. […]
On the other hand, to further confirm success of an exemplary siDNA in silencing an exemplary blaIMP-1 gene in Pseudomonas aeruginosa, minimum inhibitory concentration (MIC) of imipenem was determined in an exemplary transformed Pseudomonas aeruginosa. To this end, MICs of imipenem that may inhibit the growth of an exemplary transformed Pseudomonas aeruginosa (with an exemplary siDNA) was determined after 1-4 h, 2-18 h, and 3-36 h, by broth dilution method performed in a 96-well microtiter plate. […]
To conduct an exemplary MIC assay, bacterial culture grown to log phase was adjusted to about 5×10^5 (cells/mL) in Muller-Hinton broth. Then, the antimicrobial effect of imipenem on an exemplary transformed Pseudomonas aeruginosa and an exemplary untreated Pseudomonas aeruginosa was determined by measuring turbidity of bacterial growth in each well, using a microtiter plate reader. […]

Substance: siDNA: Annealed duplex of sense strand SEQ ID NO: 1 and antisense strand SEQ ID NO: 2, each 5′ 6-FAM and 3′ TAMARA, targeting blaIMP-1 gene (sense GCCGACATCGCCTTCGGCGTTTATGATT; antisense AACGCGAGAAAGTATGAACCTAGCACTT; DNA, 5' {FAM}, 3' {TAMRA}, backbone and methylation of C not given here)
- decrease of gene expression compared to untreated Pseudomonas aeruginosa ([1]; Group A, 4 h in the presence of imipenem): 11.36 folds
- Fold change of blaIMP-1 mRNA ([1]; Group A: transformed bacteria grown 4 h in the presence of imipenem): ~0.088
- decrease of gene expression compared to untreated Pseudomonas aeruginosa ([1]; Group B, 18 h in the presence of imipenem): 50 folds
- Fold change of blaIMP-1 mRNA ([1]; Group B: transformed bacteria grown 18 h in the presence of imipenem): ~0.020
- decrease of gene expression compared to untreated Pseudomonas aeruginosa ([1]; Group C, 36 h in the presence of imipenem): 3.7 folds
- Fold change of blaIMP-1 mRNA ([1]; Group C: transformed bacteria grown 36 h in the presence of imipenem): ~0.27
- edema and tissue damage in lung tissue (hematoxylin and eosin histology) [2]: significantly less edema and tissue damage
- MIC of imipenem in siDNA-transformed Pseudomonas aeruginosa ([3]; Group A, 4 h, Muller-Hinton broth): 2 µg/mL
- MIC of imipenem in siDNA-transformed Pseudomonas aeruginosa ([3]; Group B, 18 h, Muller-Hinton broth): 4 µg/mL
- MIC of imipenem in siDNA-transformed Pseudomonas aeruginosa ([3]; Group C, 36 h, similar to untreated negative control): 32 µg/mL
